The source of these data is patent US20220401500A1, “BACTERIA AND HERBAL EXTRACT NUTRACEUTICAL BLENDS FOR LUNG HEALTH MAINTENANCE” (THE UAB RESEARCH FOUNDATION, priority 2021, published 2022).

Experiment [1] deals with probiotic strains RSB11, RSB12, or RSB13. Put plainly: Culture growth of probiotic strains with herbal extracts or Vitamin D. The experiment is classed as cell-based, Lactobacillus. The following applies: number of colonies per plate; FIG. 11.
For experiment [2], the system named is C57BL/6 mouse pups. The experiment is described as follows: In vivo (mouse) dysbiosis model of chronic lung disease, LPS-treated pups.
In experiment [3] the test system is mice.
The test system of experiment [4] is Ac-PGP. The experiment is described as follows: Loss of function of Ac-PGP by treatment with RTR in vivo. Details: species or system mouse.

As to Vitamin D, the “culture growth of probiotic strains RSB11, RSB12, RSB13” value in experiment [1] is “do not have an inhibitory effect”.
As for lipopolysaccharide [LPS], the Ac-PGP levels entry in experiment [2] (BALF, by HPLC, vs controls, P<0.05, FIG. 7E) is listed as “significantly increased”. For the same substance, the “myeloperoxidase (MPO) levels” value in experiment [2] (BALF, vs controls, P<0.05, FIG. 7C) is “significantly increased”. For the same substance, the “neutrophil elastase (NE) levels” value in experiment [2] (BALF, vs controls, P<0.05, FIG. 7D) is reported as “significantly increased”. In experiment [2] (LPS-treated C57BL/6 mouse pups, FIG. 7A), the lung tissue structure result was “alveolar hypoplasia and simplification”. In addition, the “radial alveolar counts (RAC)” value in experiment [2] (vs controls, P<0.05, FIG. 7B) was “significantly decreased”.
For “N-acetyl-Proline-Glycine-Proline [Ac-PGP]”, in experiment [3] (BALF, normoxia and noxious stimuli, P<0.05, FIG. 8C), the NE concentrations entry is reported as “increased”. Also, in experiment [3] (ELISA, normoxia and noxious stimuli, P<0.05, FIG. 8B), the MPO concentration entry was “increased”. The chronic lung disease entry in experiment [3] (gain of function, in vivo, FIG. 8) is “causes chronic lung disease”. In experiment [3] (normoxia and noxious stimuli, P<0.05, FIG. 8A), the RAC counts result is “decreased”. In addition, the “right ventricular hypertrophy (RVH)” value in experiment [3] (normoxia and noxious stimuli, P<0.05, FIG. 8D) is “increased”.
Consider Arginine-Threonine-Arginine [RTR], for which the chronic lung disease result in experiment [4] (in vivo, FIG. 9) is “protective”. The RAC result in experiment [4] (noxious stimuli, LPS+RTR vs LPS alone, P<0.05, FIG. 9B) was “significantly higher”. In addition, the MPO concentrations entry in experiment [4] (noxious stimuli, LPS+RTR vs LPS alone, P<0.05, FIG. 9C) is “significantly lower”. Besides, the RVH result in experiment [4] (noxious stimuli, LPS+RTR vs LPS alone, P<0.05, FIG. 9D) is on record as “significantly less severe”.
